Test systems include HCT-116 colon; HL-60(TB) leukemia; KM12 colon; RPMI-8226 leukemia; SF-295 CNS; SK-MEL-28 melanoma; SK-OV-3 ovarian; SN12C renal; SNB-75 CNS; TK-10 renal.
Common to all, as to test: NCI-60 cell line screen, 48 h

Values joined by “and” are separate entries in the source; they are usually repeats but may differ in a detail not shown here. Equal entries are not always repeated.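 Values below derive from 48-hour exposures of cells grown in 96-well plates, with endpoints linearly interpolated between the two concentrations bracketing the appropriate inhibition level. GI50 = concentration required for 50% inhibition of growth. TGI: total growth inhibition.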

For the compound `COc1cccc2cc(-c3nc(C4CCC(C(=O)O)CC4)n4ncnc(N)c34)[nH]c12` (stereo not drawn), the GI50 in the experiment on HCT-116 colon is 0.824 µM and 1.08 µM; with HL-60(TB) leukemia, 3.13 µM and > 3.55 µM; in the experiment on KM12 colon it was 0.33 µM and 0.59 µM; in the experiment on RPMI-8226 leukemia, 0.185 µM and 0.303 µM; in the experiment on SF-295 CNS, 0.233 µM and 0.647 µM; with SK-MEL-28 melanoma, 0.175 µM and 0.169 µM. Besides, the GI50 in the experiment with SK-OV-3 ovarian was 0.223 µM and 0.278 µM; in the experiment on SN12C renal it was 0.203 µM and 0.413 µM; in the experiment with SNB-75 CNS, 0.0952 µM and 0.152 µM; in the experiment on TK-10 renal, 0.15 µM and 0.411 µM. Also, the TGI with HCT-116 colon is more than 100 µM; with HL-60(TB) leukemia, 25.7 µM and > 10 µM; in the experiment on KM12 colon, more than 100 µM; in the experiment with RPMI-8226 leukemia it was 3.02 µM and > 5.2 µM; in the experiment on SF-295 CNS, 2.1 µM and 4.36 µM; in the experiment with SK-MEL-28 melanoma it was 1.81 µM and 1.4 µM. For the same compound, the TGI in the experiment with SK-OV-3 ovarian was 1.75 µM and 2.21 µM; in the experiment with SN12C renal, more than 100 µM; in the experiment with SNB-75 CNS, 1.03 µM and 1.3 µM; with TK-10 renal, 1.63 µM and 6.11 µM.

In the case of `O=C1c2ccccc2CCC1(Br)Br`, the GI50 in the experiment on HCT-116 colon was 0.888 µM; in the experiment on HL-60(TB) leukemia, 2.04 µM; in the experiment with KM12 colon, 4.34 µM; with RPMI-8226 leukemia it was 1.99 µM; with SF-295 CNS it was 14.6 µM; in the experiment with SK-MEL-28 melanoma, 2.08 µM. Besides, the GI50 was 6.12 µM in the experiment with SK-OV-3 ovarian, 2.18 µM with SN12C renal, 3.23 µM with SNB-75 CNS and 1.5 µM with TK-10 renal. Further, the TGI was found to be 2.23 µM in the experiment on HCT-116 colon; 5.22 µM with HL-60(TB) leukemia; 15 µM in the experiment with KM12 colon; 4.9 µM with RPMI-8226 leukemia; 28 µM in the experiment on SF-295 CNS; 4.65 µM in the experiment on SK-MEL-28 melanoma. Besides, the TGI with SK-OV-3 ovarian worked out at 18.2 µM; in the experiment on SN12C renal, 5.37 µM; with SNB-75 CNS, 16.2 µM; in the experiment on TK-10 renal, 2.88 µM.

With `Cc1ccc(C(CC(=O)c2ccccc2)C(C(=O)c2ccccc2)C(c2ccc(C)cc2)C2C(=O)NC(=S)NC2=O)cc1` (stereo not drawn), the GI50 in the experiment with HCT-116 colon was 19 µM; with HL-60(TB) leukemia it was 18.7 µM; in the experiment on KM12 colon it was 15 µM; with RPMI-8226 leukemia, 44.2 µM; with SF-295 CNS it was 12.2 µM; with SK-MEL-28 melanoma, more than 50 µM. Also, the GI50 with SK-OV-3 ovarian was more than 50 µM; in the experiment with SN12C renal, 25.1 µM; in the experiment with SNB-75 CNS, more than 50 µM; in the experiment with TK-10 renal, 20.6 µM. For the same compound, the TGI in the experiment with HCT-116 colon, in the experiment on HL-60(TB) leukemia, in the experiment on KM12 colon, in the experiment on RPMI-8226 leukemia, in the experiment with SF-295 CNS and with SK-MEL-28 melanoma was more than 50 µM in each case. The TGI in the experiment with SK-OV-3 ovarian, in the experiment on SN12C renal, with SNB-75 CNS and in the experiment with TK-10 renal was more than 50 µM throughout.

`O=C(Nc1ccc(O)c(NS(=O)(=O)c2ccc(F)cc2)c1)c1ccc(-c2ccccc2)cc1`: the GI50 is 5.12 µM in the experiment on HCT-116 colon; 1.4 µM in the experiment on HL-60(TB) leukemia; 10 µM in the experiment on KM12 colon; 2.87 µM in the experiment with RPMI-8226 leukemia; 9.71 µM with SF-295 CNS; 9.06 µM in the experiment on SK-MEL-28 melanoma. Further, the GI50 in the experiment with SK-OV-3 ovarian is 18.8 µM; in the experiment on SN12C renal, 9.79 µM; with SNB-75 CNS, 2.68 µM; in the experiment on TK-10 renal, 11.9 µM. Besides, the TGI with HCT-116 colon was 20.7 µM; with HL-60(TB) leukemia it was 5.34 µM; in the experiment on KM12 colon, 23.3 µM; in the experiment on RPMI-8226 leukemia, 18.2 µM; in the experiment with SF-295 CNS, 24 µM; with SK-MEL-28 melanoma it was 23.5 µM. Further, the TGI with SK-OV-3 ovarian came to 44.2 µM; with SN12C renal, 21.7 µM; in the experiment with SNB-75 CNS, 15.7 µM; in the experiment with TK-10 renal, 30.3 µM.

Consider `COc1ccc(NC(=O)CC(=O)n2nc(-c3ccccc3)c(N=Nc3ccccc3C)c2-c2ccccc2)cc1`, for which the TGI with HCT-116 colon is 47.9 µM; in the experiment with HL-60(TB) leukemia, more than 100 µM; in the experiment on KM12 colon it was more than 100 µM; in the experiment on RPMI-8226 leukemia, more than 100 µM; in the experiment with SF-295 CNS, 45.6 µM; in the experiment on SK-MEL-28 melanoma, more than 63.2 µM. Also, the TGI with SK-OV-3 ovarian is 36.3 µM; in the experiment on SN12C renal, more than 88.5 µM; in the experiment with SNB-75 CNS it was 36.6 µM; with TK-10 renal, 47.2 µM.

For `Cc1csc(-c2ccc3c(c2)COC3(CCCN(C)C)c2ccc(F)cc2)c1` (stereo not drawn), the GI50 is 1.86 µM in the experiment on HCT-116 colon; 1.97 µM in the experiment on HL-60(TB) leukemia; 1.95 µM in the experiment with KM12 colon; 2.2 µM in the experiment with RPMI-8226 leukemia; 1.84 µM in the experiment with SF-295 CNS; 1.77 µM with SK-MEL-28 melanoma. Moreover, the GI50 with SK-OV-3 ovarian was 1.87 µM; in the experiment on SN12C renal it was 1.79 µM; in the experiment with SNB-75 CNS, 1.2 µM; in the experiment with TK-10 renal it was 1.83 µM. The TGI is 3.54 µM in the experiment on HCT-116 colon; 4.27 µM in the experiment with HL-60(TB) leukemia; 3.75 µM with KM12 colon; 4.76 µM in the experiment on RPMI-8226 leukemia; 3.52 µM with SF-295 CNS; 3.3 µM with SK-MEL-28 melanoma. The TGI was determined as 3.69 µM with SK-OV-3 ovarian, 3.4 µM in the experiment on SN12C renal, 2.61 µM in the experiment with SNB-75 CNS and 3.72 µM in the experiment on TK-10 renal.

`COCO[C@@H]1CC2C=Nc3cc(OCc4ccccc4)c(OC)cc3C(=O)N2C1` (stereo partly drawn): the GI50 with HCT-116 colon was 0.66 µM; in the experiment on HL-60(TB) leukemia, 0.486 µM; in the experiment with KM12 colon it was 0.578 µM; in the experiment on RPMI-8226 leukemia it was 0.211 µM; in the experiment on SF-295 CNS, 0.559 µM; with SK-MEL-28 melanoma, 1.6 µM. Further, the GI50 is 0.611 µM with SK-OV-3 ovarian, 0.49 µM in the experiment with SN12C renal, 1.09 µM in the experiment with SNB-75 CNS and 0.869 µM in the experiment with TK-10 renal. Besides, the TGI in the experiment with HCT-116 colon was 26 µM; in the experiment on HL-60(TB) leukemia, more than 100 µM; in the experiment on KM12 colon it was 10.6 µM; in the experiment on RPMI-8226 leukemia, more than 20.8 µM; in the experiment with SF-295 CNS, 12.1 µM; in the experiment with SK-MEL-28 melanoma it was 12.6 µM. In addition, the figures for the TGI in the experiment with SK-OV-3 ovarian and in the experiment with SN12C renal were 6.2 µM and 2.14 µM, respectively.

For the compound `COc1cc(/C=N/Nc2ncnc3c2cnn3Cc2ccccc2)ccc1O`, the GI50 was 14 µM in the experiment with HCT-116 colon; more than 18.5 µM in the experiment with HL-60(TB) leukemia; 7.68 µM in the experiment with KM12 colon; more than 18.5 µM in the experiment with RPMI-8226 leukemia; more than 25 µM with SF-295 CNS; more than 19.6 µM in the experiment with SK-MEL-28 melanoma. For the same compound, the GI50 in the experiment with SK-OV-3 ovarian was 5.99 µM; with SN12C renal, more than 15.8 µM; in the experiment on SNB-75 CNS, 3.29 µM; in the experiment on TK-10 renal it was 6.39 µM. The TGI in the experiment with HCT-116 colon, with HL-60(TB) leukemia, in the experiment on KM12 colon, with RPMI-8226 leukemia, with SF-295 CNS and in the experiment on SK-MEL-28 melanoma was more than 25 µM throughout. The TGI in the experiment on SK-OV-3 ovarian is 16.8 µM; with SN12C renal, more than 25 µM; in the experiment on SNB-75 CNS, 11.4 µM; in the experiment on TK-10 renal, 19.1 µM.

The values are drawn from PubChem BioAssay (NCI).
